The source of these data is patent publication US8349834B2, “Dioxolane derivates for the treatment of cancer” (Clavis Pharma AS, priority 2005, dated 2013).

Like-named read-outs stand apart in the source and are kept apart here.

For data set [1], the system named is THP-1 cells.
Protocol: (§1) The U937 and THP-1 cell lines were seeded, 20 000 cells per well, in 96-well-plates. 50 μl medium ( ) was added to each well. At the same time test compounds were added in 5 different concentrations and incubated for 48 hours. The CellTiter 96® Non-Radioactive cell proliferation assay (Promega) was used to study the cytotoxicity of test in these cells. This assay is a colorimetric method for determining the number of viable cells in proliferation or chemosensitivity assays. […] MTS is bioreduced by cells into a formazan product that is soluble in tissue culture medium. The absorbance of the formazan at 490 nm can be measured directly from 96 well assay plates without additional processing.
Data set [2] relates to THP-1 cells. Description: CellTiter 96 MTS cytotoxicity in THP-1 cells. The conditions noted are these: THP-1, 48 hours; for IC50: read-out: THP-1 cells IC50 μM ± SD, MTS.
Protocol: as §1
Data set [3] concerns U937 cells. Description: CellTiter 96 MTS cytotoxicity in U937 cells. The following applies: U937, 48 hours; for IC50: read-out: U937 cells IC50 μM ± SD, MTS.
Protocol: as §1
The test system of data set [4] is U937 cells.
Protocol: as §1
The subject of the next data set is several cell lines. The following applies: prior art references; cited from earlier work.
Another data set concerns MaTu/Adr cells. Description: in-vitro activity in breast tumour line MaTu and adriamycin resistant subline MaTu/Adr. In kind it is cell-based. The conditions noted are these: MaTu/Adr vs. MaTu.
For another data set, the system named is HeLa/mut cells. As to the kind of experiment: MTT growth inhibition in cervical cancer cell line HeLa/mut. In kind it is cell-based, human. The conditions noted are these: for IC50: 4 days incubation, MTT, read-out: IC50 μM ± Standard Deviation. The procedure:
The cervical cancer cell line HeLa/mut was seeded, 5×10^3 cells per well, in 96-well-plates. The medium was RMPI 1640 with 2 mM Glutamine and 10% Foetal Bovine Serum. 24 hours later the test compounds were added in 6 concentrations. The cells were incubated for 4 days. The MTT solution was added to each well and incubated for 4 hours. The samples were read by an ELISA reader at 540 nm. The IC50 values were determined from growth curves. The test compounds were troxacitabine elaidic amid, troxacitabine petroselaidoate, troxacitabine-petroselaidic amide and troxacitabine γ-linolenoate.

Broadly, the IC50 is the concentration needed to halve the response being measured. On to `CCCCC/C=C\C/C=C\C/C=C\CCCCC(=O)Nc1ccn([C@@H]2CO[C@H](CO)O2)c(=O)n1` [Troxacitabine N^4-6,9,12-linolenic acid amide], for which the cytotoxicity in words result in the data set on THP-1 cells [1] and in the data set with U937 cells [4] was “even more active than the other compounds” each time. In addition, the half-inhibitory concentration (IC50) in the data set with THP-1 cells [2] turned out to be 0.085 µM; in the data set with U937 cells [3], 0.007 µM.

`CCCCCCCCCCC/C=C\CCCCC(=O)OC[C@H]1OC[C@@H](n2ccc(N)nc2=O)O1` [Troxacitabine-2′-hydroxymethyl-petroselinoate]: in the data set with THP-1 cells [2], the cytotoxicity in words result is recorded as “even more active than the other compounds” and the IC50 is 0.09 µM. Also, in the data set on U937 cells [3], the cytotoxicity in words entry was “even more active than the other compounds” and the IC50 came out at 0.007 µM.

For the compound `CCCCCCCC/C=C/CCCCCCCC(=O)OC[C@H]1OC[C@@H](n2ccc(N)nc2=O)O1` [Troxacitabine-5′-elaidic acid ester, reference compound], the concentration for half-maximal inhibition (IC50) in the data set with THP-1 cells [2] and with U937 cells [3] was 0.06 µM throughout.

Take `CCCCCCCCC=CCCCCCCCC(=O)OCC1OCC(n2ccc(N)nc2=O)O1` (stereo not drawn) [Troxacitabine-5′-oleate, reference compound]: the half-inhibitory concentration (IC50) in the data set with THP-1 cells [2] stood at 0.07 µM; in the data set on U937 cells [3] it was 0.09 µM.

`CCCCCCCCC=CCCCCCCCC(=O)Nc1ccn(C2COC(CO)O2)c(=O)n1` (stereo not drawn) [oleic acid amid derivative]: the “times better than the elaidic counterpart” value with several cell lines is 2 to 5 times.

In turn, `CCCCCCCC/C=C/CCCCCCCC(=O)Nc1ccn([C@@H]2CO[C@H](CO)O2)c(=O)n1` [troxacitabine elaidic-amide, Troxacitabine N^4-Elaidic Acid Amide] came in with a resistance factor with MaTu/Adr cells of 6.

On to `CCCCCCCCCCC/C=C/CCCCC(=O)OC[C@H]1OC[C@@H](n2ccc(N)nc2=O)O1` [troxacitabine petroselaidoate, Troxacitabine-2′-hydroxymethyl-petroselaidoate], for which the results for the IC50 in the data set with THP-1 cells [2], in the data set on U937 cells [3] and in the data set with HeLa/mut cells were 0.06 µM, 0.08 µM and 0.18 ± 0.12 µM, respectively. Besides, the “fold more active than troxacitabine elaidic amid” value in the data set on HeLa/mut cells (relative to troxacitabine elaidic amide) is listed as 20 fold.

Take `CCCCC/C=C\C/C=C\C/C=C\CCCCC(=O)OC[C@H]1OC[C@@H](n2ccc(N)nc2=O)O1` [troxacitabine γ-linolenoate, Troxacitabine 2′-hydroxymethyl-6,9,12-linolenoate]: the half-maximal inhibitory concentration (IC50) was 0.16 µM in the data set with THP-1 cells [2], 0.09 µM in the data set with U937 cells [3] and 0.83 ± 0.59 µM in the data set with HeLa/mut cells.

As to `CCCCCCCCCCC/C=C/CCCCC(=O)Nc1ccn([C@@H]2CO[C@H](CO)O2)c(=O)n1` [troxacitabine-petroselaidic amide, Troxacitabine N^4-petroselaidic acid amide], the IC50 was 0.08 µM in the data set on THP-1 cells [2], 0.02 µM in the data set on U937 cells [3] and 0.15 ± 0.07 µM in the data set with HeLa/mut cells.

For `CCCCCCCCCCC/C=C\CCCCC(=O)Nc1ccn([C@@H]2CO[C@H](CO)O2)c(=O)n1` [troxacitabine-petroselinic amide, Troxacitabine N^4-petroselinic acid amide], the cytotoxicity in words result with THP-1 cells [2] and in the data set on U937 cells [3] was “even more active than the other compounds” in each case.

Turning to `CCCCCCCC/C=C/CCCCCCCC(=O)Nc1ccn(C2COC(CO)O2)c(=O)n1` (stereo not drawn) [α-troxacitabine N4-elaidic acid amide, reference compound], in the data set on U937 cells [3], the 50% inhibitory concentration (IC50) turned out to be 10 µM.
